This assay concerns the target JNK3 (Homo sapiens, UniProt P53779). The assay can be described thus: Kinase panel screening. Type of assay: biochemical. The note with it: single dose of 10 μM, read-out: % inhibition rate.

Sequence of JNK3 (P53779 whole entry, species assumed): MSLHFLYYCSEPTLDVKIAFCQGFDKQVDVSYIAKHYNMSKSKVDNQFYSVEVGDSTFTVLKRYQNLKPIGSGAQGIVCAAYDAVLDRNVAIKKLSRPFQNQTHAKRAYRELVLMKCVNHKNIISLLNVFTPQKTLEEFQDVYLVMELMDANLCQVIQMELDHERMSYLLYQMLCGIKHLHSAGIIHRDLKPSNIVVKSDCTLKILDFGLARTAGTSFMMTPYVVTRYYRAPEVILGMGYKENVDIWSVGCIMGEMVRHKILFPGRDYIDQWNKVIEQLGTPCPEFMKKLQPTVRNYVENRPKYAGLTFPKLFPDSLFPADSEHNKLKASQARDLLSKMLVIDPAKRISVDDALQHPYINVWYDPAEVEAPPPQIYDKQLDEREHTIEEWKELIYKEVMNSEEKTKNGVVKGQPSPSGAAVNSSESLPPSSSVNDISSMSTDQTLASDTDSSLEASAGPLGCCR

`Cc1oncc1C(=O)Nc1ccc2cnc(-c3cc(N4CCN(C)CC4)cc(C(F)(F)F)c3)nc2c1` [Compound 7d, 5-methyl-N-(2-(3-(4-methylpiperazin-1-yl)-5-(trifluoromethyl)phenyl)quinazolin-7-yl)isoxazole-4-carboxamide]: the inhibition (as a rule, the relative decrease from the control value, in per cent) at 10 µM was 19.5%.

The values above are taken from patent US12617758B2, “Quinazoline derivative having FLT3 inhibitory activity, and use thereof” (INDUSTRY-UNIVERSITY COOPERATION FOUNDATION HANYANG …, priority 2020, dated 2026).
